According to patent publication US6576675B1, “Z-styryl sulfone anticancer agents” (Temple University - Of the Commonwealth System of Higher …, priority 1999, dated 2003):

Experiments:
Assay type in all cases: cell-based
[1] = test system: Prostate cell lines: LnCaP, DU-145; assay: Viability assay (Trypan blue exclusion), prostate tumor cell lines; conditions: 2.5 mM, 72 hours, read-out: % Death, tumor cell type Prostate
Experimental: (§1) The effect of the Z-styryl sulfones on normal fibroblasts and on tumor cells of breast, prostate and ovarian origin was examined utilizing the following cell lines: breast tumor cell lines: MCF-7, BT-20 and 435; prostate tumor cell lines LnCaP and DU-145; and ovarian tumor cell lines OVCAR and SKOV3. NIH/3T3 and HFL cells, which are normal murine and human fibroblasts, respectively, were also tested. LnCap is an androgen-dependent prostate tumor cell line. MCF-7 is an estrogen-responsive breast tumor cell line, while BT-20 and 435 are estrogen-unresponsive breast tumor cell lines. MCF-7, BT-20 and 435 were grown in Dulbecco's modified Eagle's medium (DMEM) containing 10% fetal bovine serum supplemented with penicillin and streptomycin. LnCaP and Du145 were cultured in RPMI with 10% fetal bovine serum containing penicillin and streptomycin. NIH3T3 and HFL cells were grown in DMEM containing 10% calf serum supplemented with penicillin and streptomycin. All cell cultures were maintained at 37° C. in a humidified atmosphere of 5% CO2.
(§2) Cells were treated with test compound at 2.5 mM concentration and cell viability was determined after 72 hours by the Trypan blue exclusion method.
(§3) Activity for each compound is reported as a range of cell induced death (% Death) with the lowest activity in the range of 10-20% and the highest being above 75%.

[2] = test system: Renal cell lines: CAKI-1, CAKI-2; assay: Viability assay (Trypan blue exclusion), renal tumor cell lines; conditions: 2.5 mM, 72 hours, read-out: % Death, tumor cell type Renal
Experimental: as §2, §3
(§4) The procedure of Example 22 was followed for certain of the (Z)-benzylsulfones, substituting the following cancer cell lines: lung, N417 and H157; renal, CAKI-1 and CAKI-2; glioma, U87 and SW1088.

[3] = test system: Glioma cell lines: U87, SW1088; assay: Viability assay (Trypan blue exclusion), glioma cell lines; conditions: Homo sapiens, 2.5 mM, 72 hours, read-out: % Death, tumor cell type Glioma
Experimental: as §2, §3, §4

[4] = test system: Lung cell lines: N417, H157; assay: Viability assay (Trypan blue exclusion), lung tumor cell lines; conditions: 2.5 mM, 72 hours, read-out: % Death, tumor cell type Lung
Experimental: as §2, §3, §4

[5] = test system: Ovarian cell lines: OVCAR, SKOV3; assay: Viability assay (Trypan blue exclusion), ovarian tumor cell lines; conditions: Homo sapiens, 2.5 mM, 72 hours, read-out: % Death, tumor cell type Ovarian
Experimental: as §1, §2, §3

[6] = test system: Breast cell lines: MCF-7, BT-20, 435; assay: Viability assay (Trypan blue exclusion), breast tumor cell lines; conditions: 2.5 mM, 72 hours, read-out: % Death, tumor cell type Breast
Experimental: as §1, §2, §3

SMILES: O=S(=O)(/C=C\c1ccc(Br)cc1)Cc1ccccc1Cl [Example 15, Z-4-Bromostyryl 2-Chlorobenzylsulfone]
- cytotoxicity at 2500 µM [1]: 20 to 25%
- cytotoxicity at 2500 µM [2]: 20 to 25%
- cytotoxicity at 2500 µM [3]: 20 to 25%
- cytotoxicity at 2500 µM [4]: 20 to 25%
- cytotoxicity at 2500 µM [5]: 20 to 25%
- cytotoxicity at 2500 µM [6]: 20 to 25%

SMILES: O=S(=O)(/C=C\c1ccc(F)cc1)Cc1ccccc1Cl [Example 11, Z-4-Fluorostyryl 2-Chlorobenzylsulfone]
- cytotoxicity at 2500 µM [1]: 20 to 25%
- cytotoxicity at 2500 µM [2]: 20 to 25%
- cytotoxicity at 2500 µM [3]: 20 to 25%
- cytotoxicity at 2500 µM [4]: 20 to 25%
- cytotoxicity at 2500 µM [5]: 20 to 25%
- cytotoxicity at 2500 µM [6]: 20 to 25%

SMILES: O=S(=O)(/C=C\c1ccc(Cl)cc1)Cc1ccc(Cl)cc1 [Example 6, Z-4-Chlorostyryl 4-Chlorobenzylsulfone]
- cytotoxicity at 2500 µM [1]: 60 to 70%
- cytotoxicity at 2500 µM [2]: 60 to 70%
- cytotoxicity at 2500 µM [3]: 60 to 70%
- cytotoxicity at 2500 µM [4]: 60 to 70%
- cytotoxicity at 2500 µM [5]: 60 to 70%
- cytotoxicity at 2500 µM [6]: 60 to 70%

SMILES: O=S(=O)(/C=C\c1ccc(Cl)cc1)Cc1ccccc1Cl [Example 7, Z-4-Chlorostyryl 2-Chlorobenzylsulfone]
- cytotoxicity at 2500 µM [1]: 20 to 25%
- cytotoxicity at 2500 µM [2]: 20 to 25%
- cytotoxicity at 2500 µM [3]: 20 to 25%
- cytotoxicity at 2500 µM [4]: 20 to 25%
- cytotoxicity at 2500 µM [5]: 20 to 25%
- cytotoxicity at 2500 µM [6]: 20 to 25%

SMILES: O=S(=O)(/C=C\c1ccccc1)Cc1ccccc1Cl [Example 3, Z-styryl 2-Chlorobenzylsulfone]
- cytotoxicity at 2500 µM [1]: 20 to 25%
- cytotoxicity at 2500 µM [5]: 20 to 25%
- cytotoxicity at 2500 µM [6]: 20 to 25%

SMILES: O=S(=O)(/C=C\c1ccccc1)Cc1ccccc1 [Example 1, Z-styryl Benzylsulfone]
- cytotoxicity at 2500 µM [1]: 10 to 20%
- cytotoxicity at 2500 µM [5]: 10 to 20%
- cytotoxicity at 2500 µM [6]: 10 to 20%

SMILES: O=S(=O)(/C=C\c1ccc(Br)cc1)Cc1ccc(F)cc1 [Example 16, Z-4-Bromostyryl 4-Fluorobenzylsulfone]
- cytotoxicity at 2500 µM [1]: 60 to 70%
- cytotoxicity at 2500 µM [2]: 60 to 70%
- cytotoxicity at 2500 µM [3]: 60 to 70%
- cytotoxicity at 2500 µM [4]: 60 to 70%
- cytotoxicity at 2500 µM [5]: 60 to 70%
- cytotoxicity at 2500 µM [6]: 60 to 70%

SMILES: O=S(=O)(/C=C\c1ccc(Cl)cc1)Cc1ccccc1 [Example 5, Z-4-Chlorostyryl Benzylsulfone]
- cytotoxicity at 2500 µM [1]: 20 to 25%
- cytotoxicity at 2500 µM [2]: 20 to 25%
- cytotoxicity at 2500 µM [3]: 20 to 25%
- cytotoxicity at 2500 µM [4]: 20 to 25%
- cytotoxicity at 2500 µM [5]: 20 to 25%
- cytotoxicity at 2500 µM [6]: 20 to 25%

SMILES: O=S(=O)(/C=C\c1ccc(F)cc1)Cc1ccc(F)cc1 [Example 12, Z-4-Fluorostyryl 4-Fluorobenzylsulfone]
- cytotoxicity at 2500 µM [1]: 40 to 50%
- cytotoxicity at 2500 µM [2]: 40 to 50%
- cytotoxicity at 2500 µM [3]: 40 to 50%
- cytotoxicity at 2500 µM [4]: 40 to 50%
- cytotoxicity at 2500 µM [5]: 40 to 50%
- cytotoxicity at 2500 µM [6]: 40 to 50%

SMILES: O=S(=O)(/C=C\c1ccccc1)Cc1ccc(F)cc1 [Example 4, Z-styryl 4-Fluorobenzylsulfone]
- cytotoxicity at 2500 µM [1]: 20 to 25%
- cytotoxicity at 2500 µM [5]: 20 to 25%
- cytotoxicity at 2500 µM [6]: 20 to 25%

SMILES: O=S(=O)(/C=C\c1ccc(F)cc1)Cc1ccccc1 [Example 9, Z-4-Fluorostyryl Benzylsulfone]
- cytotoxicity at 2500 µM [1]: 20 to 25%
- cytotoxicity at 2500 µM [5]: 20 to 25%
- cytotoxicity at 2500 µM [6]: 20 to 25%

SMILES: O=S(=O)(/C=C\c1ccc(Cl)cc1)Cc1ccc(F)cc1 [Example 8, Z-4-Chlorostyryl 4-Fluorobenzylsulfone]
- cytotoxicity at 2500 µM [1]: > 75%
- cytotoxicity at 2500 µM [2]: > 75%
- cytotoxicity at 2500 µM [3]: > 75%
- cytotoxicity at 2500 µM [4]: > 75%
- cytotoxicity at 2500 µM [5]: > 75%
- cytotoxicity at 2500 µM [6]: > 75%

SMILES: O=S(=O)(/C=C\c1ccc(Br)cc1)Cc1ccccc1 [Example 13, Z-4-Bromostyryl Benzylsulfone]
- cytotoxicity at 2500 µM [1]: 20 to 25%
- cytotoxicity at 2500 µM [5]: 20 to 25%
- cytotoxicity at 2500 µM [6]: 20 to 25%

SMILES: Cc1ccc(/C=C\S(=O)(=O)Cc2ccccc2)cc1 [Example 17, Z-4-Methylstyryl Benzylsulfone]
- cytotoxicity at 2500 µM [1]: 20 to 25%
- cytotoxicity at 2500 µM [5]: 20 to 25%
- cytotoxicity at 2500 µM [6]: 20 to 25%

SMILES: O=S(=O)(/C=C\c1ccc(F)cc1)Cc1ccc(Cl)cc1 [Example 10, Z-4-Fluorostyryl 4-Chlorobenzylsulfone]
- cytotoxicity at 2500 µM [1]: 60 to 70%
- cytotoxicity at 2500 µM [2]: 60 to 70%
- cytotoxicity at 2500 µM [3]: 60 to 70%
- cytotoxicity at 2500 µM [4]: 60 to 70%
- cytotoxicity at 2500 µM [5]: 60 to 70%
- cytotoxicity at 2500 µM [6]: 60 to 70%

SMILES: Cc1ccc(/C=C\S(=O)(=O)Cc2ccccc2Cl)cc1 [Example 19, Z-4-Methylstyryl 2-Chlorobenzylsulfone]
- cytotoxicity at 2500 µM [1]: 20 to 25%
- cytotoxicity at 2500 µM [5]: 20 to 25%
- cytotoxicity at 2500 µM [6]: 20 to 25%

SMILES: O=S(=O)(/C=C\c1ccc(Br)cc1)Cc1ccc(Cl)cc1 [Example 14, Z-4-Bromostyryl 4-Chlorobenzylsulfone]
- cytotoxicity at 2500 µM [1]: > 75%
- cytotoxicity at 2500 µM [2]: > 75%
- cytotoxicity at 2500 µM [3]: > 75%
- cytotoxicity at 2500 µM [4]: > 75%
- cytotoxicity at 2500 µM [5]: > 75%
- cytotoxicity at 2500 µM [6]: > 75%

SMILES: Cc1ccc(/C=C\S(=O)(=O)Cc2ccc(Cl)cc2)cc1 [Example 18, Z-4-Methylstyryl 4-Chlorobenzylsulfone]
- cytotoxicity at 2500 µM [1]: 20 to 25%
- cytotoxicity at 2500 µM [2]: 20 to 25%
- cytotoxicity at 2500 µM [3]: 20 to 25%
- cytotoxicity at 2500 µM [4]: 20 to 25%
- cytotoxicity at 2500 µM [5]: 20 to 25%
- cytotoxicity at 2500 µM [6]: 20 to 25%

SMILES: Cc1ccc(/C=C\S(=O)(=O)Cc2ccc(F)cc2)cc1 [Example 20, Z-4-Methylstyryl 4-Fluorobenzylsulfone]
- cytotoxicity at 2500 µM [1]: 20 to 25%
- cytotoxicity at 2500 µM [2]: 20 to 25%
- cytotoxicity at 2500 µM [3]: 20 to 25%
- cytotoxicity at 2500 µM [4]: 20 to 25%
- cytotoxicity at 2500 µM [5]: 20 to 25%
- cytotoxicity at 2500 µM [6]: 20 to 25%

SMILES: O=S(=O)(/C=C\c1ccccc1)Cc1ccc(Cl)cc1 [Example 2, Z-styryl 4-Chlorobenzylsulfone]
- cytotoxicity at 2500 µM [1]: 20 to 25%
- cytotoxicity at 2500 µM [5]: 20 to 25%
- cytotoxicity at 2500 µM [6]: 20 to 25%
